The values that follow come from patent US11548939B2, “Therapeutic combinations using IGF1R pathway inhibitors, and methods to predict anti-IGF1R therapeutic efficacy” (UNIVERSITY OF PITTSBURGH-OF THE COMMONWEALTH SYSTEM OF …, priority 2018, dated 2023).

The test system of assay [1] is SUM44PE ILC cells. In words: Synergy measurement (Chou-Talalay combination index), CellTiter Glo viability, 96-well ULA plates, 6 days. To be noted: for CI: ED75 / CI: ED90: SUM44PE, drug in combination with ICI 182,780, mean ± SEM, 3 independent experiments.
Description: SUM44PE ILC cells were plated into 96-well ULA plates and treated for 6 days with increasing doses of OSI-906 (FIG. 10A, 10B), BMS-754807 (FIG. 10C, 10D), or BEZ235 (FIG. 10E, 10F) in combination with increasing doses of ICI 182,780. The dose response curves (FIG. 10A, 10C, 10E) and heat maps (FIG. 10B, 10D, 10F) shown indicate inhibition of cell viability (CellTiter Glo).
For synergy experiments, SUM44PE and MDA-MB-134 cells were plated in 96-well ULA plates (18,000 cells/well) in 100 μl of media/well. […] Synergy was calculated using the Median-Effect Principle and Combination Index-Isobologram Theorem (Chou-Talalay)^27. Combination index values for ED50, ED75, ED90 are shown as a mean±SEM from n=3 independent experiments.
Synergy was measured using the Median-Effect Principle and Combination-Index Isoblogram Theorem. […] Values are shown +/−SEM from 3 independent experiments each with n=2 biological replicates. CI values <1 indicate a synergistic drug interaction.
Assay [2] has as its system MDA-MB-134 (MM134) ILC cells. The description is as above. To be noted: for CI: ED75 / CI: ED90: MM134, drug in combination with ICI 182,780, mean ± SEM, 3 independent experiments.
Description: MDA-MB-134 ILC cells were plated into 96-well ULA plates and treated for 6 days with increasing doses of OSI-906 (FIG. 11A, 11B), BMS-754807 (FIGS. 11C, 11D), or BEZ235 (FIGS. 11E, 11F) in combination with increasing doses of ICI 182,780. The dose response curves (FIGS. 11A, 11C, 11E) and heat maps (FIGS. 11B, 11D, 11F) shown indicate inhibition of cell viability (CellTiter Glo). Representative experiment shown; n=3 each with 2 biological replicates per combination of doses.
Plates (2D and ultra-low attachment [ULA; Corning #3474]) were collected on day 6 and viability was measured using CellTiter Glo Viability assay (Promega #G7572). […] For synergy experiments, SUM44PE and MDA-MB-134 cells were plated in 96-well ULA plates (18,000 cells/well) in 100 μl of media/well. […] Synergy was calculated using the Median-Effect Principle and Combination Index-Isobologram Theorem (Chou-Talalay)^27. Combination index values for ED50, ED75, ED90 are shown as a mean±SEM from n=3 independent experiments.
Synergy was measured using the Median-Effect Principle and Combination-Index Isoblogram Theorem. […] Values are shown +/−SEM from 3 independent experiments each with n=2 biological replicates.
Assay [3] has as its system MCF-7 cells. In words: Dose response growth assay (CellTiter Glo) in cells transfected with SCR or CDH1 siRNA. The settings on record: 6 days. In kind it is cell-based. The source says:
The CellTiter Glo assay was used to assess cell viability (relative luminescence).
CellTiter Glo assay was used to assess cell viability (relative luminescence).
For orientation: In ATP-based viability assays light output follows the ATP content of the culture.

Assay [4] deals with MM134 xenograft tumor. In words: ILC xenograft tumor ex vivo explant culture, Ki67 staining. It is filed as cell-based, human. To be noted: 1 μM, 72 hours, vehicle 47%, p=0.002. The procedure: (§1) FIGS. 12A, 12B, 12C, 12D, 12E and 12F show IGF1R inhibition reduces Ki67 staining in ILC tumor ex vivo culture. MM134 (FIGS. 12A, 12B, and 12C) and BCK4 (FIGS. 12D, 12E, and 12F) xenograft tumors were harvested from immunocompromised mice, minced into 1-2 mm^3 tumor chunks and then plated on gelatin sponges in 12-well plate containing 1.5 mL media. Media was treated with DMSO Vhc (FIGS. 12A and 12D) or 1 μM […] (FIGS. 12B and 12E) for 72 hours. Tumor pieces were harvested by FFPE and stained for Ki67 as a marker of proliferation. Staining was quantified for MM134 (FIG. 12C) and BCK4 (FIG. 12F) cells by counting all clearly defined nuclei in 20× images. Statistical difference was assessed using a Student's t-test (p<0.05; n=3-6). […] Nuclei were quantified by counting all clearly defined nuclei within each tissue section (n=3-6). […]
(In general: A xenograft is tissue or cells of one species grown in another, often human tumour cells in immunodeficient mice.)

The test system of assay [5] is BCK4 xenograft tumor. The assay is described as above. It is filed as cell-based. The settings on record: 1 μM, 72 hours, vehicle 25%, p=0.005. The method, then:
as §1

In assay [6] the test system is ZR75.1 cells. In words: Dose response growth assay (CellTiter Glo) in cells transfected with SCR or CDH1 siRNA. In kind it is cell-based. The settings on record: 6 days. An excerpt: FIGS. 5A and 5B show knockdown of E-cadherin increases sensitivity to IGF1R inhibition in breast cancer cells. ZR75.1 cells were reverse transfected with SCR or CDH1 siRNA and seeded into 96-well 2D (FIG. 5A) or ULA (FIG. 5B) plates and treated with OSI-906 for 6 days. CellTiter Glo assay was used to assess cell viability (relative luminescence).

As to `Cn1c(=O)n(-c2ccc(C(C)(C)C#N)cc2)c2c3cc(-c4cnc5ccccc5c4)ccc3ncc21` [BEZ235, 4-[2,3-dihydro-3-methyl-2-oxo-8-(3-quinolinyl)-1H-imidazo[4,5-c]quinolin-1-yl]-α,α-dimethyl-benzeneacetonitrile], the entries for the “CI: ED75” value in assay [1] and in assay [2] were 0.401 ± 0.12 and 0.547 ± 0.13, respectively. The results for the “CI: ED90” value in assay [1] and in assay [2] were 0.425 ± 0.12 and 2.885 ± 1.34, respectively.
In the case of `C[C@@]1(C(=O)Nc2ccc(F)nc2)CCCN1c1nc(Nc2cc(C3CC3)[nH]n2)c2cccn2n1` [BMS-754807, (2S)-1-[4-[(5-Cyclopropyl-1H-pyrazol-3-yl)amino]pyrrolo[2,1-f][1,2,4]triazin-2-yl]-N-(6-fluoro-3-pyridinyl)-2-methyl-2-Pyrrolidinecarboxamide], the “viability of siCDH1 cells compared to siSCR cells in response to treatment” value in assay [3] (2D growth condition) is given as “no significant difference”; in assay [3] (ULA growth condition), “decreased viability”. The Ki67 positive nuclei amounted to 22% in assay [4] and 11% in assay [5]. The “CI: ED75” value in assay [1] is 0.081 ± 0.04; in assay [1] (listed as BMS), 0.081; in assay [2], 0.230 ± 0.04. The “CI: ED90” value in assay [1] is given as 0.099 ± 0.04; in assay [1] (listed as BMS) it was 0.099; in assay [2], 0.667 ± 0.15.
Consider `C[C@]12CC[C@@H]3c4ccc(O)cc4C[C@@H](CCCCCCCCC[S+]([O-])CCCC(F)(F)C(F)(F)F)[C@H]3[C@@H]1CC[C@@H]2O` (stereo partly drawn) [ICI 182,780, 7α,17β-[9-[(4,4,5,5,5-Pentafluoropentyl)sulfinyl]nonyl]estra-1,3,5(10)-triene-3,17-diol], for which the “difference in EC50 between siSCR and siCDH1 cells” value in assay [3] (2D and ULA (FIG. 6)) is on record as “no statistical difference in EC50”. In addition, the “minimum dose reduction index (DRI) for ICI” value is reported as no less than 8 fold in assay [1] (SUM44PE cells, all drug combinations (OSI, BMS, BEZ), at the EC50) and no less than 2 fold in assay [2] (MM134 cells, all drug combinations (OSI, BMS, BEZ), at the EC50).
Regarding `C[C@]1(O)C[C@@H](c2nc(-c3ccc4ccc(-c5ccccc5)nc4c3)c3c(N)nccn32)C1` [OSI-906, cis-3-[8-amino-1-(2-phenyl-7-quinolinyl)imidazo[1,5-a]pyrazin-3-yl]-1-methyl-cyclobutanol], the “viability of siCDH1 cells compared to siSCR cells in response to treatment” value is recorded as “significantly decreased viability” in assay [3] (2D growth condition), “significantly decreased viability” in assay [3] (ULA growth condition), “not in the 2D growth condition” in assay [6] (2D growth condition) and “significantly decreased viability” in assay [6] (ULA growth condition). Also, the “CI: ED75” value in assay [1] was 0.250 ± 0.10; in assay [2] it was 0.449 ± 0.18. The results for the “CI: ED90” value in assay [1] and in assay [2] were 0.398 ± 0.22 and 0.808 ± 0.48, respectively.
